The values that follow come from patent US7351719B2, “Amide compounds having MCH-antagonistic activity and medicaments comprising these compounds” (Boehringer Ingelheim Pharma GmbH & Co. KG, priority 2002, dated 2008).

This assay has as its target T1, hMCH-1R (Homo sapiens, UniProt Q99705).
T1 construct: expressed in transfected cells; host or cells: CHO/Galpha16 cells (stably transfected); membranes used
The experiment in a line: MCH-1 receptor binding test (125I-MCH binding to hMCH-1R transfected cell membranes). The following applies: hMCH-1R transfected CHO/Galpha16 cell membranes. How it is done: Membranes from CHO/Galpha 16 cells stably transfected with human hMCH-1R are resuspended using a syringe (needle 0.6×25 mm) and diluted in test buffer (50 mM HEPES, 10 mM MgCl2, 2 mM EGTA, pH 7.00; 0.1% bovine serum albumin (protease-free), 0.021% bacitracin,1 μg/mL aprotinin, 1 μg/mL leupeptin and 1 μM phosphoramidone) to a concentration of 5 to 15 μg/mL. […] After the incubation the reaction is filtered using a cell harvester through 0.5% PEI treated glass fibre filters (GF/B, Unifilter Packard). The membrane-bound radioactivity retained on the filter is then determined after the addition of scintillator substance (Packard Microscint 20) in a measuring device (TopCount of Packard).
The analysis of the concentration binding curve is carried out on the assumption of one receptor binding site.

T1 sequence (Q99705 whole entry): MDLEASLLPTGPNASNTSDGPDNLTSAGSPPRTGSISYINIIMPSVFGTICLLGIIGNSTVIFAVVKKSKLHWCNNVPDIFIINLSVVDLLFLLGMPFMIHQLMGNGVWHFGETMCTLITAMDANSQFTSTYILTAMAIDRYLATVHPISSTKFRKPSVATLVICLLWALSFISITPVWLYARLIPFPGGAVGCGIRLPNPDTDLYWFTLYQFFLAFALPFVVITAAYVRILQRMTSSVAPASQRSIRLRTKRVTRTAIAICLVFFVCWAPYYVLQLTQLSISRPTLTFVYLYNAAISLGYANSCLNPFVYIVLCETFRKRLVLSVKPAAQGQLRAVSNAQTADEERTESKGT

One may read the IC50 as the concentration at which inhibition is half-maximal. A higher IC50 goes with lower potency. Turning to `CCN(CC)CCn1ccc2cc(NC(=O)COc3ccc(C(F)(F)F)cc3Cl)ccc21` [Example 12], the half-maximal inhibitory concentration (IC50) amounted to 41 nM.

On to `CCN(CC)CCOc1ccc(NC(=O)COc2ccc(C(C)(C)C)cc2Cl)cc1Cl` [Example 34], for which the IC50 turned out to be 17 nM.
